Source: US11479536B1 (King Abdulaziz University, priority 2022, dated 2022)

Assays:
T47D cell line = test: Cytotoxic assay (MTT) in monolayer model, T47D; assay type: cell-based; conditions: Homo sapiens, 48 h, read-out: IC50 cytotoxic assay against T47D, monolayer
Experimental: 1×10^6 cells of the human breast cancer cell lines MCF7 and T47D were seeded and grown at 37° C. with 5% CO2, in a Dulbecco's Modified Eagle Medium (DMEM) with 10% fetal bovine serum (Sigma). The cells were maintained until they reached the confluence over 90%. Then, the cells were subjected to the different treatment conditions before performing the assays.
The cytotoxic effects of MAK compounds were assessed against MCF7 and T47D cell lines using MTT cell viability assay. The cells were treated for 48 hours with different concentrations of each MAK compound and the control cells were subjected to the vehicle (0.1% DMSO). Then, 10% of 5 mg/mL MTT was added to each well containing treated or control cells, and mixture was incubated at 37° C. for 3 hours. After that, the MTT-containing media was replaced with 100 μL DMSO and incubated for 10 minutes at room temperature before measuring the absorbance for each well at 570 nm. According to the measured absorbance, the IC50 was calculated for each compound. All the experiments were performed in biological and experimental replicates.

[1] = Stability in mouse liver microsomes; assay type: in vitro ADME
Experimental: Both mouse and human liver microsomes were obtained from Merck KGaA, (Darmstadt, Germany), Cat. No. M9441 (Mouse liver microsomes) and M0317 (Human liver microsomes). Assays were conducted in triplicate in 96-deep well polypropylene plates. […] At five time points, reaction mixture aliquots were transferred to 96-shallow well stop plates on ice containing acetonitrile with 0.1 μM propafenone. […] Standard curves for test compound were generated using 5 concentrations in triplicate that were processed as above but with zero incubation time. Stop plates were centrifuged at 2000 g for 10 min and then supernatant aliquots were transferred to a Waters Aquity® UPLC 700 μL 96-well sample plate with cap mat (Waters, Milford, Mass.). The amount of compound remaining in the supernatant was quantified by LC/MS/MS using a Waters Xevo TQ MS (electrospray positive mode) coupled to a Waters Aquity® UPLC (BEH column, C18). Propafenone was used as the internal standard. GraphPad® Prism v 5.04 was used for nonlinear fitting of time course data to generate t1/2 values.

| Compound | IC50 (T47D cell line) | loss of compound in mouse liver microsomes ([1]; lacking NADPH) | half-life ([1]; male, CD-1, mouse, pooled liver microsomes, in the presence of NADPH, 37° C., read-out: stability to oxidative metabolism in mouse liver microsomes (t1/2)) |
| --- | --- | --- | --- |
| O=C(Cc1ccc(NC(=O)c2cccc(Cl)c2)cn1)NCc1ccccc1 [MAK-6, N-(6-(2-(benzylamino)-2-oxoethyl)pyridin-3-yl)-3-chlorobenzamide] | 1.2 nM |  |  |
| COc1cccc(C(=O)Nc2ccc(CC(=O)NCc3ccccc3)cc2)c1 [MAK-1, N-(4-(2-(benzylamino)-2-oxoethyl)phenyl)-3-methoxybenzamide] |  | non-significant loss | 35 min |
